This is an account of results in paper PMC6930638, “The Masked Polar Group Incorporation (MPGI) Strategy in Drug Design: Effects of Nitrogen Substitutions on Combretastatin and Isocombretastatin Tubulin Inhibitors” (Molecules, 2019).

≈ marks a conversion by molar mass, not a printed value. Read-outs that look alike come from different tables or passages of the source.

In data set [1] the test system is Bovine brain microtubule protein (MTP). Nature of the data set: Tubulin polymerization inhibition assay (turbidimetry). It is filed as biochemical. Conditions: 1.5 mg/mL MTP; IC50 calculated only if more than 50% inhibition at 20 µM; read-out: TPI IC50. As for the experimental part: Bovine brain microtubule protein (MTP) was isolated as previously described. Briefly, it was purified according to the modified Shelanski method by two cycles of temperature-dependent assembly/disassembly.
Tubulin polymerization was monitored using a Helios α spectrophotometer by measuring the increase in turbidity at 450 nm, caused by a shift from 4 °C to 37 °C, which allows the in vitro MTP self-disassembly and assembly respectively. […] Firstly, ligands at 20 µM concentration, were incubated with 1.5 mg/mL MTP at 20 °C for 30 min and subsequently cooled on ice for 10 min. Then, the experiment starts at 4 °C to establish the initial baseline. The assembly process was initiated by shifting of the temperature to 37 °C and the turbidity produced can be measured by an absorbance increase. After reaching a stable plateau, the temperature was switched back to 4 °C to return to the initial absorption values. The difference in amplitude between the stable plateau and the initial baseline of the curves was taken as the degree of tubulin polymerization for each experiment. […] All the measurements were carried out in at least two independent experiments using MTP from different isolation.

Data set [2] is described as follows: Aqueous solubility determination (shake flask, UV). It counts as physicochemical. Particulars: thermodynamic from solid, phosphate buffer pH 7.0, 48 h stirring, filtered, UV, read-out: Solub. As for the experimental part:
One of the expected effects of introducing nitrogen substitutions on combretastatin and isocombretastatin analogues, is an increase in aqueous solubility. Solubility was spectrophotometrically determined in phosphate buffer at pH 7. UV absorbance of soluble compounds was measured after shaking and microfiltration. […] In addition, aqueous solubilities of the corresponding ammonium salts are over 1 mg/mL.
This great improvement is probably due to the symmetry reduction, combined with an increased polarity for 2g.
Compounds were stirred in a solution of phosphate buffer at pH 7.0 (1–2 mg of compound in 300 µL of buffer) during 48 h. After that, the samples were filtered over a […] filter to discard the insoluble residues. In order to determine the maximum wavelength of absorbance for each compound, a scan between 270 and 400 nm was performed. Once the wavelength was selected, a calibration line was performed and the concentration of the stirred and filtered samples was measured.

For data set [3], the system named is HeLa cervix epithelioid carcinoma. Nature of the data set: MTT cell antiproliferative assay, HeLa. It counts as cell-based. Conditions: Homo sapiens, 72 h. As to the method: (§1) The in vitro antiproliferative activity of the synthesized compounds was evaluated by a colorimetric reaction, using the MTT reagent. They were tested against three different human tumor cell lines: HeLa cervix epithelioid carcinoma, HT-29 colon adenocarcinoma, and MCF-7 breast adenocarcinoma. […] Moving the alkylamino substituent from a para to a meta position with respect to the bridge results in potency reduction, except for the phenstatin analogue 1f. However, the introduction of a nitrogen atom to form 2-dimethylaminopyridine derivatives entails a loss of activity, both for phenstatin analogues (1b, 2b), while for isocombretastatins, it only involves a 2–3 times potency decrease (3b). For combretastatins, it implies an improvement in the cytotoxicity values down to tenths of nanomolar (8b). […] On the other hand, the best 2-dimethylaminopyridine was combretastatin 8b. All ammonium salts derivatives were not cytotoxic at micromolar concentrations.
(§2) HeLa (human cervical carcinoma) and MCF-7 (human breast carcinoma) cell lines were cultured in Dulbecco’s Modified Eagles Medium (DMEM) supplemented with 2 mM L-glutamine (Lonza-Cambrex, Karlskoga, Sweden), 10% (v/v) heat inactivated fetal bovine serum (HIFBS) (Lonza-Cambrex) and 100 μg/mL streptomycin-100 IU/mL penicillin (Lonza-Cambrex) at 37 °C in humidified 95% air and 5% CO2. HT-29 (human colon carcinoma) cells were cultured at 37 °C in complete RPMI 1640 medium containing 2 mM L-glutamine, 10% (v/v) HIFBS and 100 μg/mL streptomycin-100 IU/mL penicillin in humidified 95% air and 5% CO2 atmosphere.
(§3) The effect of the different compounds on the proliferation of human cell lines was determined by using the MTT (3-[4,5-dimethylthiazol-2-yl]-2,5-diphenyltetrazolium bromide) reagent (MTT Thiazolyl Blue Tetrazolium Bromide, Sigma-Aldrich, St. Louis, MO, USA) dissolved in PBS 5 mg/mL. Cell viability was evaluated seeding 100 µL of cells in exponential growth phase with appropriate cell line concentration (1.5 × 10^4 HeLa and MCF-7 cells/mL and 3 × 10^4 HT-29 cells/mL) in complete medium in 96-well plates at 37 °C and 5% CO2. After 24 h incubation to allow cells to attach to the plates the ligands were added at different concentrations from 10^−5 to 10^−9 M. The effect on the proliferation was evaluated 72 h post-treatment by adding the MTT reagent (10 µL/well) to a final concentration of 0.5 mg/mL and the plate was further incubated for another 3 h. After this period, the supernatant was removed, the MTT violet crystals formed on the bottom of each well were dissolved in DMSO (100 µL/well) and subsequently, the absorbance of the color complex was read at 570 nm using a multi-well plate reader. Compounds were dissolved in dimethyl sulfoxide (DMSO) and the final solvent concentrations never exceeded 0.5% (v/v). The control wells included treated cells with 0.5% (v/v) DMSO and the positive control. Measurements were performed in triplicate, and each experiment was repeated three times. […] Nonlinear curves fitting the experimental data were carried out for each compound.
In general terms: Formazan colour is commonly taken as a measure of viable cells.

Data set [4] has as its system HeLa, HT-29 and MCF-7 human tumor cell lines. In words: Antiproliferative activity over the three human tumor cell lines (MTT). It is filed as cell-based. Conditions: Homo sapiens, read-out: Cytotoxicity range (range of antiproliferative IC50 values). As to the method:
as §1
The antiproliferative activity of the compounds against three human tumor cell lines of different origins (i.e., HeLa cervix epithelioid carcinoma, HT-29 colon adenocarcinoma and MCF-7 breast adenocarcinoma) was evaluated by the MTT method. […] This high success rate is the result of a combination of favorable scaffolds and substituents, and it is similar to those of previous reports on related series. […] We have previously observed the same trend for related compounds acting at the colchicine site of tubulin [10, 23]. For this pyridine series, we observed a different potency trend when we compare the 4-amino-3-pyridine and the 3-amino-4-pyridine derivatives. […] This different behavior is probably a reflection of their different shape, combined with the different geometries imposed by different bridges. We have previously shown that the potency ordering isocombretastatins similar to oximes higher than benzophenones could be explained by the higher conjugation of the ketones with the aromatic rings, which imposes a more planar disposition than those required for high affinity colchicine site binding. For the 3-amino-4-pyridine series, more planar structures are required in order to avoid the bumping of the amino substituents with tubulin out the plane of the aromatic ring, an effect which we have previously shown to impact the potency of 3-substituted indolecombretastatins and dimethylaminophenyl phenstatins. This different geometrical disposition of the amino substituents, and the different adaptability of their corresponding pockets in the two series, can also account for the preference of bulkier substituents at position 3, such as the pyrrolidine rather than the smaller dimethylamino. […] The opposite is observed for the 4-dimethylaminophenyl phenstatins 1a and 1b. […] The remarkable levels of solubility achieved for the quaternary ammonium salts came unfortunately at the expenses of biological activity.
The effect of the different compounds on the proliferation of human cell lines was determined by using the MTT (3-[4,5-dimethylthiazol-2-yl]-2,5-diphenyltetrazolium bromide) reagent (MTT Thiazolyl Blue Tetrazolium Bromide, Sigma-Aldrich, St. Louis, MO, USA) dissolved in PBS 5 mg/mL. Cell viability was evaluated seeding 100 µL of cells in exponential growth phase with appropriate cell line concentration (1.5 × 10^4 HeLa and MCF-7 cells/mL and 3 × 10^4 HT-29 cells/mL) in complete medium in 96-well plates at 37 °C and 5% CO2. After 24 h incubation to allow cells to attach to the plates the ligands were added at different concentrations from 10^−5 to 10^−9 M. The effect on the proliferation was evaluated 72 h post-treatment by adding the MTT reagent (10 µL/well) to a final concentration of 0.5 mg/mL and the plate was further incubated for another 3 h. […]

The subject of data set [5] is MCF-7 breast adenocarcinoma. In words: MTT cell antiproliferative assay, MCF-7. It is filed as cell-based. Conditions: Homo sapiens, MCF7, 72 h. As for the experimental part: as §1, §2, §3
The mark [6] stands for this setting: range over the cell lines, Table S1.
[7] abbreviates: phosphate buffer, pH 7, aqueous buffer.

In the case of `C=C(c1ccc([N+](C)(C)C)cc1)c1cc(OC)c(OC)c(OC)c1.[I-]` [Compound 7a, N,N,N-trimethyl-4-(1-(3,4,5-trimethoxyphenyl)vinyl)benzenaminium iodide], the IC50 (usually the concentration needed to halve the response being measured) in data set [1] was over 20000 nM; in data set [3], over 1000 nM; in data set [4], over 1000 nM; in data set [5], over 1000 nM. Besides, the solubility at 48 h in data set [2] (aqueous buffer) worked out at 2500 µg/mL.

In the case of `COc1cc(C(=NO)c2ccc([N+](C)(C)C)cc2)cc(OC)c1OC.[I-]` [Compound 6a, 4-((Hydroxyimino)(3,4,5-trimethoxyphenyl)methyl)-N,N,N-trimethylbenzenaminium iodide], the IC50 in data set [1] was over 20000 nM; in data set [3] it was over 1000 nM; in data set [5], over 1000 nM. Moreover, in data set [2] (aqueous buffer), the solubility at 48 h was found to be 1500 µg/mL.

As for `C=C(c1cccc(N(C)C)c1)c1cc(OC)c(OC)c(OC)c1` [Compound 3f, N,N-Dimethyl-3-(1-(3,4,5-trimethoxyphenyl)vinyl)aniline], the IC50 in data set [1] is over 20000 nM; in data set [3] it was over 1000 nM; in data set [4] (setting [6]), over 1000 nM; in data set [5], over 1000 nM. Also, in data set [2] (aqueous buffer), the solubility at 48 h was found to be 21 µg/mL (≈ 67 µM).

Turning to `COc1ccc(OC)c(C(=O)c2ccc([N+](C)(C)C)cc2)c1.[I-]` [Compound 5e, 4-(2,5-Dimethoxybenzoyl)-N,N,N-trimethylbenzenaminium iodide], the IC50 was over 20000 nM in data set [1], over 1000 nM in data set [3], over 1000 nM in data set [4] (setting [6]) and over 1000 nM in data set [5]. Moreover, the solubility at 48 h in data set [2] (setting [7]) was over 5000 µg/mL.

On to `COc1cc(C=Cc2ccc([N+](C)(C)C)nc2)cc(OC)c1OC.[I-]` [Compound 9b, N,N,N-trimethyl-5-(3,4,5-trimethoxystyryl)pyridin-2-aminium iodide], for which the IC50 in data set [1] is over 20000 nM; in data set [3], over 1000 nM; in data set [5], over 1000 nM. Further, the solubility at 48 h in data set [2] (setting [7]) amounted to 679 µg/mL.

For the compound `COc1cc(C(=NO)c2cccc(N(C)C)c2)cc(OC)c1OC` [Compound 2f, (3-(Dimethylamino)phenyl)(3,4,5-trimethoxyphenyl)methanone oxime], the IC50 was over 20000 nM in data set [1], over 1000 nM in data set [3] and over 1000 nM in data set [5]. Also, the solubility at 48 h in data set [2] (setting [7]) turned out to be 153 µg/mL (≈ 463 µM).

As for `COc1ccc(C(=O)c2ccc([N+](C)(C)C)cc2)c(OC)c1OC.[I-]` [Compound 5d, N,N,N-Trimethyl-4-(2,3,4-trimethoxybenzoyl)benzenaminium iodide], the IC50 in data set [1] is over 20000 nM; in data set [3], over 1000 nM; in data set [4] (setting [6]), over 1000 nM; in data set [5] it was over 1000 nM. Further, in data set [2] (setting [7]), the solubility at 48 h is 4400 µg/mL.

As for `COc1cc(C=Cc2ccnc(N3CCCC3)c2)cc(OC)c1OC` [Compound 8h, 2-(Pyrrolidin-1-yl)-4-(3,4,5-trimethoxystyryl)pyridine], the IC50 in data set [1] is over 20000 nM; in data set [3], over 1000 nM; in data set [4] (setting [6]) it was over 1000 nM; in data set [5], over 1000 nM. Moreover, in data set [2] (setting [7]), the solubility at 48 h worked out at 65 µg/mL (≈ 191 µM).

As to `COc1cc(C(=O)c2ccc(N(C)C)nc2)cc(OC)c1OC` [Compound 1b, (6-(Dimethylamino)pyridin-3-yl)(3,4,5-trimethoxyphenyl)methanone], the IC50 in data set [1] was over 20000 nM; in data set [3] it was over 1000 nM; in data set [4] (setting [6]), over 1000 nM; in data set [5], over 1000 nM. Besides, the solubility at 48 h in data set [2] (setting [7]) is 10.5 µg/mL (≈ 33.2 µM).

`C=C(c1ccc([N+](C)(C)C)cc1)c1ccc(OC)c(OC)c1OC.[I-]` [Compound 7d, N,N,N-Trimethyl-4-(1-(2,3,4-trimethoxyphenyl)vinyl)benzenaminium iodide]: the IC50 is over 20000 nM in data set [1]; over 1000 nM in data set [3]; over 1000 nM in data set [4] (range over the cell lines, Table S1, heading: Cytotoxicity range); over 1000 nM in data set [5]. For the same compound, the solubility at 48 h in data set [2] (setting [7]) came to 1000 µg/mL.

On to `COc1cc(C=Cc2ccc(N3CCCC3)nc2)cc(OC)c1OC` [Compound 8c, 2-(Pyrrolidin-1-yl)-5-(3,4,5-trimethoxystyryl)pyridine], for which the IC50 is over 20000 nM in data set [1], over 1000 nM in data set [3], over 1000 nM in data set [4] (setting [6]) and over 1000 nM in data set [5].

In the case of `COc1cc(C=Cc2ccc([N+](C)(C)C)cc2)cc(OC)c1OC` [Compound 9a, N,N,N-trimethyl-4-(3,4,5-trimethoxystyryl)benzenaminium iodide], the IC50 is over 20000 nM in data set [1], over 1000 nM in data set [3], over 1000 nM in data set [4] (setting [6]) and over 1000 nM in data set [5].
